Laboratory results from patent publication US5496947A, “Quinolone carboxylic acid derivatives” (Dong Wha Pharmaceutical Industrial Co., Ltd., priority 1994, dated 1996).
Read-outs that look alike come from different tables or passages of the source.

Assays:
[1] = tested on: Acinetobacter calcoaceticus; test: MIC, 2-fold dilution method in micro-well plate, A. calcoaceticus; assay type: cell-based
Method: (§1) The in vitro antibiotic activity of the present compound is measured using 2-fold dilution method with a micro-well plate and the bacteria are inoculated in about 10^5 cfu/ml after an overnight culture in a brain-heart infusion (BHI) broth at 37° C. The novel compounds of the present invention are converted to a hydrochloride salt form and diluted with a sterilized distilled water to make 10 mg/ml aqueous solution. After the mother liquor wherein the compound is diluted to the two-fold concentration has been obtained in the form of an aqueous solution, the respective 0.1 ml of diluted liquor is transferred to a well and is inoculated with 0.1 ml of the culture fluid to make about (10^5 -10^6)/2 cfu/ml.
(§2) After cultivation at 37° C., the minimum inhibitory concentration (MIC) is measured and recorded in Table I-V.
Table I-V show the minimum inhibitory concentrations (MIC). […]

[2] = tested on: Salmonella typhimurium ATCC 14028; test: MIC, 2-fold dilution method in micro-well plate, S. typhimurium; assay type: cell-based; settings: Salmonella enterica, read-out: Minimum Inhibitory Concentration
Method: as §1, §2
(§3) Table I-V show the minimum inhibitory concentrations (MIC).
Salmonella typhimurium ATCC 14028

[3] = tested on: Citrobacter freundii ATCC 8090; test: MIC, 2-fold dilution method in micro-well plate, C. freundii; assay type: cell-based
Method: as §1, §2, §3
Citrobacter freundii ATCC 8090

[4] = tested on: Klebsiella pneumoniae ATCC 13883; test: MIC, 2-fold dilution method in micro-well plate, K. pneumoniae; assay type: cell-based
Method: as §1, §2, §3
Klebsiella pneumoniae ATCC 13883

[5] = tested on: Enterobacter aerogenes ATCC 13048; test: MIC, 2-fold dilution method in micro-well plate, E. aerogenes; assay type: cell-based; settings: Klebsiella aerogenes
Method: as §1, §2, §3
Enterobacter aerogenes ATCC 13048

[6] = tested on: Pseudomonas aeruginosa ATCC 27853; test: MIC, 2-fold dilution method in micro-well plate, P. aeruginosa; assay type: cell-based; settings: P. aerugirnosa ATCC27853, 37° C., read-out: Minimum Inhibitory Concentration
Method: as §1, §2, §3
Pseudomonas aeruginosa ATCC 27853

[7] = tested on: Streptococcus pyrogens ATCC 19615; test: MIC, 2-fold dilution method in micro-well plate, S. pyrogens; assay type: cell-based; settings: S. pyrogenes ATCC19615, 37° C., read-out: Minimum Inhibitory Concentration
Method: as §1, §2, §3
Streptococcus pyrogens ATCC 19615

[8] = tested on: Shigella flexneri ATCC 12022; test: MIC, 2-fold dilution method in micro-well plate, S. flexneri; assay type: cell-based; settings: S. flexneri ATCC12022, 37° C., read-out: Minimum Inhibitory Concentration
Method: as §1, §2, §3
Shigella flexneri ATCC 12022

[9] = tested on: Streptococcus faecalis ATCC 29212; test: MIC, 2-fold dilution method in micro-well plate, S. faecalis ATCC 29212; assay type: cell-based; settings: Enterococcus faecalis; S. faecalis ATCC29212, 37° C.; read-out: Minimum Inhibitory Concentration
Method: as §1, §2, §3
Streptococcus faecalis ATCC 29212

[10] = tested on: Escherichia coli ATCC 25922; test: MIC, 2-fold dilution method in micro-well plate, E. coli; assay type: cell-based
Method: as §1, §2, §3
Escherichia coli ATCC 25922

[11] = tested on: Streptococcus pneumoniae ATCC 6303; test: MIC, 2-fold dilution method in micro-well plate, S. pneumoniae; assay type: cell-based; settings: S. pneuinoniae ATCC6303, 37° C., read-out: Minimum Inhibitory Concentration
Method: as §1, §2, §3
Streptococcus pneumoniae ATCC 6303

Enterobacter cloacae = test: MIC, 2-fold dilution method in micro-well plate, E. cloacae; assay type: cell-based; settings: read-out: Minimum Inhibitory Concentration
Method: as §1, §2, §3
Enterobacter cloacae ATCC 23355

[12] = tested on: Haemophilus influenza ATCC 35056; test: MIC, 2-fold dilution method in micro-well plate, H. influenzae; assay type: cell-based; settings: H. influenzae ATCC35056, 37° C.; read-out: Minimum Inhibitory Concentration
Method: as §1, §2, §3
Haemophilus influenza ATCC 35056

[13] = tested on: Serratia marcescens ATCC 8100; test: MIC, 2-fold dilution method in micro-well plate, S. marcescens; assay type: cell-based
Method: as §1, §2, §3
Serratia marcescens ATCC 8100

[14] = tested on: Streptococcus faecalis ATCC 19433; test: MIC, 2-fold dilution method in micro-well plate, S. faecalis ATCC 19433; assay type: cell-based; settings: Enterococcus faecalis; S. faecalis ATCC19433, 37° C.; read-out: Minimum Inhibitory Concentration
Method: as §1, §2, §3
Streptococcus faecalis ATCC 19433

[15] = tested on: Shigella sonnei ATCC 25931; test: MIC, 2-fold dilution method in micro-well plate, S. sonnei; assay type: cell-based; settings: S. sonnei ATCC25931, 37° C., read-out: Minimum Inhibitory Concentration
Method: as §1, §2, §3
Shigella sonnei ATCC 25931

[16] = tested on: Proteus vulgaris ATCC 13315; test: MIC, 2-fold dilution method in micro-well plate, P. vulgaris; assay type: cell-based
Method: as §1, §2, §3
Proteus vulgaris ATCC 13315

[17] = Pharmacokinetic properties in ICR mouse, oral and subcutaneous, Bio-Assay (Agar well method); assay type: in vivo; settings: 40 mg/kg, average of four tests; for dose excreted: urine, read-out: Urine Recovery
Method: The pharmacokinetic properties are tested by orally administrating and subcutaneously injecting a test compound and a substance for control to a ICR Mouse with 22 g±10% weight, drawing blood after 10, 20, 30, 45, 60, 90, 120, 150, 180 and […] and analyzed by Bio-Assay (Agar well method).

[18] = ATCC8090, read-out: Minimum Inhibitory Concentration
[19] = ATCC13883, read-out: Minimum Inhibitory Concentration
[20] = E. aerogenes ATCC13048, 37° C., read-out: Minimum Inhibitory Concentration
[21] = E. coli ATCC25922, 37° C., read-out: Minimum Inhibitory Concentration
[22] = ATCC13315, read-out: Minimum Inhibitory Concentration
[23] = ATCC8100, read-out: Minimum Inhibitory Concentration
[24] = ATCC13048, read-out: Minimum Inhibitory Concentration
[25] = ATCC25922, read-out: Minimum Inhibitory Concentration

| SMILES | MIC [1, 18] [µg/mL] | MIC [2] [µg/mL] | MIC [4, 19] [µg/mL] | MIC [5, 20] [µg/mL] | MIC [6] [µg/mL] | MIC [7] [µg/mL] | MIC [8] [µg/mL] | MIC [9] [µg/mL] | MIC [10, 21] [µg/mL] | MIC [11] [µg/mL] | MIC (Enterobacter cloacae) [µg/mL] | MIC [12] [µg/mL] | MIC [14] [µg/mL] | MIC [15] [µg/mL] | MIC [16, 22] [µg/mL] | MIC [3, 18] [µg/mL] | MIC [13, 23] [µg/mL] | MIC [5, 24] [µg/mL] | MIC [10, 25] [µg/mL] | other results |
| --- | --- | --- | --- | --- | --- | --- | --- | --- | --- | --- | --- | --- | --- | --- | --- | --- | --- | --- | --- | --- |
| Cl.O=C(O)c1cn(-c2ccncc2F)c2cc(N3CCNCC3)c(F)cc2c1=O [Example 1, 1-(3-fluoro-4-pyridyl)-6-fluoro-7-(1-piperazinyl)-1,4-dihydro-4-oxoquinoline-3-carboxylic acid hydrochloride] | 0.625 | 0.625 | 0.625 | 1.25 | 0.625 | 5 | 0.625 | 5 | 1.25 | 2.5 | 0.625 | 0.625 | 5 | 0.625 | 0.625 |  |  |  |  | MIC ([3]; C. freundii ATCC8090, 37° C., read-out: Minimum Inhibitory Concentration): 1.25 µg/mL; MIC ([13]; S. marcescens ATCC8100, 37° C., read-out: Minimum Inhibitory Concentration): 0.313 µg/mL |
| CN1CCN(c2cc3c(cc2F)c(=O)c(C(=O)O)cn3-c2ccncc2F)CC1.Cl [Example 2, 1-(3-fluoro-4-pyridyl)-6-fluoro-7-(4-methyl-1-piperazinyl)-1,4-dihydro-4-oxoquinoline-3-carboxylic acid hydrochloride] | 0.625 | 0.625 | 0.625 | 1.25 | 0.625 | 10 | 0.625 | 5 | 1.25 | 10 | 0.625 | 0.625 | 5 | 0.625 | 0.625 | 0.625 | 0.625 |  |  |  |
| CC1CN(c2cc3c(cc2F)c(=O)c(C(=O)O)cn3-c2ccncc2F)CCN1.Cl (centres unmarked) [Example 3, 1-(3-fluoro-4-pyridyl)-6-fluoro-7-(3-methyl-1-piperazinyl)-1,4-dihydro-4-oxoquinoline-3-carboxylic acid hydrochloride] | 0.625 | 0.625 | 0.625 |  | 0.625 | 10 | 2.5 | 5 |  | 5 | 0.625 | 1.25 | 2.5 | 0.625 | 0.625 | 1.25 | 0.625 | 1.25 | 0.625 |  |
| CC1CN(c2cc3c(cc2F)c(=O)c(C(=O)O)cn3-c2ccncc2F)CC(C)N1.Cl (centres unmarked) [Example 4, 1-(3-fluoro-4-pyridyl)-6-fluoro-7-(3,5-dimethyl-1-piperazinyl)-1,4dihydro-4-oxoquinoline-3-carboxylic acid hydrochloride] |  | 1.25 | 0.625 |  | 0.625 | 10 | 1.25 | 5 |  | 10 | 0.625 | 1.25 | 5 | 0.625 | 0.625 | 1.25 | 1.25 | 1.25 | 1.25 | MIC ([1]; A. calcoaceticus ATCC8090 (as in tables), 37° C., read-out: Minimum Inhibitory Concentration): 2.5 µg/mL |
| Cl.NC1CCN(c2cc3c(cc2F)c(=O)c(C(=O)O)cn3-c2ccncc2F)C1 (centres unmarked) [Example 5, 1-(3-fluoro-4-pyridyl)-6-fluoro-7-(3-amino-1-pyrrolidinyl)-1,4-dihydro-4-oxoquinoline-3-carboxylic acid hydrochloride] | 0.313 | 0.313 |  | 0.156 | 0.313 | 5 | 0.625 | 2.5 | 0.156 | 2.5 | 0.313 | 0.313 | 2.5 | 0.078 |  | 0.313 | 0.313 |  |  | MIC ([4]; K. pneumoniae ATCC13883, 37° C., read-out: Minimum Inhibitory Concentration): 0.156 µg/mL; MIC ([16]; P. vulgaris ATCC13315, 37° C., read-out: Minimum Inhibitory Concentration): 0.078 µg/mL |
| CC1COc2c(N3CCN(C)CC3)c(F)cc3c(=O)c(C(=O)O)cn1c23 (centres unmarked) [Ofloxacin, reference compound] |  |  |  |  |  |  |  |  |  |  |  |  |  |  |  |  |  |  |  | AUC ([17]; blood, po, P.O): 12800 ng·h/mL; Cmax ([17]; blood, po, P.O): 9410 ng/mL; Tmax ([17]; blood, po, P.O): 45 min; bioavailability ([17]; blood, po, P.O): 89.8%; AUC ([17]; blood, sc, S.C): 14200 ng·h/mL; Cmax ([17]; blood, sc, S.C): 12900 ng/mL; Tmax ([17]; blood, sc, S.C): 25.2 min; half-life ([17]; blood, sc, S.C): 25.2 min; dose excreted ([17]; po, P.O): 32.2%; dose excreted ([17]; sc, S.C): 39.1% |
